Reference: patent US11161856B2 (H. Lundbeck A/S, priority 2017, dated 2021)

Assays:
Format in all cases: biochemical
MAGL = molecular target: T1, MAGL (Homo sapiens, UniProt Q99685); test: In vitro competitive activity-based protein profiling (FP-Rh or HT-01 probe, gel-based); design: IC50 MGLL PC3 (Human, μM) / IC50 MGLL PFC (Human, μM): scale not given here
T1 construct: Proteomes (human prefrontal cortex or cell membrane fractions); from tissue
T1 sequence (Q99685 1-303): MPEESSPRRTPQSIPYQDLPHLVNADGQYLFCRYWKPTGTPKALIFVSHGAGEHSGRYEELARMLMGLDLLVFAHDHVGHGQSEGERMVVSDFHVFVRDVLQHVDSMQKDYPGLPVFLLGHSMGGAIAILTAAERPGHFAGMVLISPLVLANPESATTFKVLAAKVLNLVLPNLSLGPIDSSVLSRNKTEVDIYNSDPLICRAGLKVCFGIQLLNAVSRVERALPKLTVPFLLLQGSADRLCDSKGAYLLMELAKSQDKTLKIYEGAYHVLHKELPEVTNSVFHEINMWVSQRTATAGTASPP
Procedure: (§1) In Vitro Competitive Activity-Based Protein Profiling.
(§2) Proteomes (human prefrontal cortex or cell membrane fractions) (50 μL, 1.0 mg/mL total protein concentration) were preincubated with varying concentrations of inhibitors at 37° C. After 30 min, FP-Rh or HT-01 (1.0 μL, 50 μM in DMSO) was added and the mixture was incubated for another 30 min at room temperature. Reactions were quenched with SDS loading buffer (15 μL-4×) and run on SDS-PAGE.

MGLL = molecular target: T2, MGLL (Mus musculus, UniProt O35678); test: In vitro competitive activity-based protein profiling, mouse brain proteome (MGLL); settings: for % Inh MGLL Brain (Mouse, μM): concentration not given (μM)
T2 construct: Brain; from tissue; host or cells: mouse brain proteome
T2 sequence (O35678 1-303): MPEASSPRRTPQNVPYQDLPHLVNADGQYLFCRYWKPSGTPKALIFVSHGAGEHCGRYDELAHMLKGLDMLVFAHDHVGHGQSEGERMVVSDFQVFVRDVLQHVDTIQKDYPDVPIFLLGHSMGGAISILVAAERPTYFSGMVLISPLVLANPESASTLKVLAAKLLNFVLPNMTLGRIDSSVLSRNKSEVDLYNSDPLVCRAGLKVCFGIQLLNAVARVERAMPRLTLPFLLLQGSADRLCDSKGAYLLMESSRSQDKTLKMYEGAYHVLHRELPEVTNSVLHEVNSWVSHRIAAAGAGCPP

ABHD6 = molecular target: T3, ABHD6 (Mus musculus, UniProt Q8R2Y0); test: In vitro competitive activity-based protein profiling, mouse brain proteome (ABHD6); settings: mouse brain proteome; concentration not given (μM)
T3 construct: Brain; from tissue; host or cells: mouse brain proteome
T3 sequence (Q8R2Y0 1-336): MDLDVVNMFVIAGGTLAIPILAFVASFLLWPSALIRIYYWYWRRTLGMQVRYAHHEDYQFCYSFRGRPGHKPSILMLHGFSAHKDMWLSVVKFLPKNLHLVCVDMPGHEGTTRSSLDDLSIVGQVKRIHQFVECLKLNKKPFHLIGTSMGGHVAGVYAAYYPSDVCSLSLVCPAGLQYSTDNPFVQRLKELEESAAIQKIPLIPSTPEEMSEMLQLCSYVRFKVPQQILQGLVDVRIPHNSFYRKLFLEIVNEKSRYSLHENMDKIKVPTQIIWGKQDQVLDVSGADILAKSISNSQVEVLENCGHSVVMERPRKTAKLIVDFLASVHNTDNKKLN
Procedure: [The source words this procedure for another target and reports this target under the same test.] as §1, §2

[1] = PC3 cell proteome, concentration not given (μM)

% Inh MGLL Brain (Mouse, μM) (MGLL) | % Inh ABHD6 Brain (Mouse, μM) (ABHD6) | Structure (SMILES) | further results
### (### is ≥75%) | # (# is ≤25%) | CC(C)(C#Cc1c(Cl)cccc1CN1CCCC12CCN(C(=O)OC(C(F)(F)F)C(F)(F)F)CC2)C(=O)O [Example 1, 4-(2-Chloro-6-((8-(((1,1,1,3,3,3-hexafluoropropan-2-yl)oxy)carbonyl)-1,8-diazaspiro[4.5]decan-1-yl)methyl)phenyl)-2,2-dimethylbut-3-ynoic acid] | % Inh MGLL PC3 (Human, μM) (MAGL; [1]): ### (### is ≥75%)
### (### is ≥75%) | # (# is ≤25%) | O=C(O)CN1CCN(c2cc(CN3CCCC34CCN(C(=O)OC(C(F)(F)F)C(F)(F)F)CC4)cc(C(F)(F)F)c2)CC1 [Example 2, 2-(4-(3-((8-(((1,1,1,3,3,3-Hexafluoropropan-2-yl)oxy)carbonyl)-1,8-diazaspiro[4.5]decan-1-yl)methyl)-5-(trifluoromethyl)phenyl)piperazin-1-yl)acetic acid] | % Inh MGLL PC3 (Human, μM) (MAGL; [1]): ### (### is ≥75%)
 |  | O=C(O)CN1CC2CC1CN2c1cc(C(F)(F)F)ccc1CN1CCCC12CCN(C(=O)OC(C(F)(F)F)C(F)(F)F)CC2 (centres unmarked) [Example 6] | IC50 MGLL PC3 (Human, μM) (MAGL; PC3 cell proteome): * * *; IC50 MGLL PFC (Human, μM) (MAGL; prefrontal cortex (PFC) proteome): * * *
 | ## (## is between 25 and 75%) | CN(Cc1ccc(C(F)(F)F)cc1N1CCC(C(=O)O)C1)C1(C)CCN(C(=O)OC(C(F)(F)F)C(F)(F)F)CC1 (stereo not drawn) [Example 118, l-(2-(((1-(((1,1,1,3,3,3-Hexailuoropropan-2-yl)oxy)carbonyl)-4-methylpiperidin-4-yl)(methyl)amino)methyl)-5-(trifluoromethyl)phenyl)pyrrolidine-3-carboxylic acid] | % Inh MGLL PFC (Human, μM) (MAGL; prefrontal cortex (PFC) proteome, concentration not given (μM)): ### (### is ≥75%)
### (### is ≥75%) | # (# is ≤25%) | CC(=O)N1CC2(CCN(c3ccccc3CN3CCC34CCN(C(=O)OC(C(F)(F)F)C(F)(F)F)CC4)C2)C1 [Example 228, 1,1,1,3,3,3-Hexafluoropropan-2-yl 1-(2-(2-acetyl-2,6-diazaspiro[3,4]octan-6-yl)benzyl)-1,7-diazaspiro[3.5]nonane-7-carboxylate] | 
## (## is between 25 and 75%) | # (# is ≤25%) | CC(=O)N1CC2(CCN(c3ccccc3CN3CCCCC34CCN(C(=O)OC(C(F)(F)F)C(F)(F)F)CC4)C2)C1 [Example 229, 1,1,1,3,3,3-Hexafluoropropan-2-yl 1-(2-(2-acetyl-2,6-diazaspiro[3,4]octan-6-yl)benzyl)-1,9-diazaspiro[5.5]undecane-9-carboxylate] | 
## (## is between 25 and 75%) | # (# is ≤25%) | CC(=O)N1CC2(CCN(c3ccccc3CN3CCCC34CN(C(=O)OC(C(F)(F)F)C(F)(F)F)C4)C2)C1 [Example 230, 1,1,1,3,3,3-Hexafluoropropan-2-yl 5-(2-(2-acetyl-2,6-diazaspiro[3,4]octan-6-yl)benzyl)-2,5-diazaspiro[3.4]octane-2-carboxylate] | 
## (## is between 25 and 75%) | ## (## is between 25 and 75%) | CC(=O)N1CC2(CCN(c3ccccc3CN3CCCCC34CN(C(=O)OC(C(F)(F)F)C(F)(F)F)C4)C2)C1 [Example 231, 1,1,1,3,3,3-Hexafluoropropan-2-yl 5-(2-(2-acetyl-2,6-diazaspiro[3.4]octan-6-yl)benzyl)-2,5-diazaspiro[3.5]nonane-2-carboxylate] | 
 | ### (### is ≥75%) | CS(=O)(=O)N1CCC2(CCN(c3cc(Cl)cc(CN4CCCC45CN(C(=O)OC(C(F)(F)F)C(F)(F)F)C5)c3)CC2)C1 [Example 232] | inhibition at 10 µM (MGLL; at 10 uM, read-out: % Inh MGLL Brain (Mouse)): 25 to 75%
### (### is ≥75%) | ## (## is between 25 and 75%) | CS(=O)(=O)N1CCC2(CCN(c3cc(CN4CCCC45CN(C(=O)OC(C(F)(F)F)C(F)(F)F)C5)cc(C(F)(F)F)c3)CC2)C1 [Example 233, 1,1,1,3,3,3-Hexafluoropropan-2-yl 5-(3-(2-(methylsulfonyl)-2,8-diazaspiro[4.5]decan-8-yl)-5-(trifluoromethyl)benzyl)-2,5-diazaspiro[3.4]octane-2-carboxylate] | 
# (# is ≤25%) | ### (### is ≥75%) | CC(=O)N1CCC2(CCN(c3cc(Cl)cc(CN4CCCC45CN(C(=O)OC(C(F)(F)F)C(F)(F)F)C5)c3)CC2)C1 [Example 234, 1,1,1,3,3,3-Hexafluoropropan-2-yl 5-(3-(2-acetyl-2,8-diazaspiro[4.5]decan-8-yl)-5-chlorobenzyl)-2,5-diazaspiro[3.4]octane-2-carboxylate] | 
### (### is ≥75%) | ### (### is ≥75%) | CC(=O)N1CCC2(CC1)CCN(c1cc(Cl)cc(CN3CCCC34CN(C(=O)OC(C(F)(F)F)C(F)(F)F)C4)c1)C2 [Example 236, 1,1,1,3,3,3-Hexafluoroprupan-2-yl 5-(3-(8-acetyl-2,8-diazaspiro[4.5]decan-2-yl)-5-chlorobenzyl)-2,5-diazaspiro[3.4]octane-2-carboxylate] | 
### (### is ≥75%) | ## (## is between 25 and 75%) | CS(=O)(=O)N1CCC2(CCN(c3cc(Cl)cc(CN4CCCC45CN(C(=O)OC(C(F)(F)F)C(F)(F)F)C5)c3)C2)CC1 [Example 237, 1,1,1,3,3,3-Hexafluoropropan-2-yl 5-(3-chloro-5-(8-(methylsulfonyl)-2,8-diazaspiro[4.5]decan-2-yl)benzyl)-2,5-diazaspiro[3.4]octane-2-carboxylate] | 
### (### is ≥75%) | ### (### is ≥75%) | CC(=O)N1CC2(CCN(c3cc(Cl)cc(CN4CCCC45CN(C(=O)OC(C(F)(F)F)C(F)(F)F)C5)c3)CC2)C1 [Example 238, 1,1,1,3,3,3-Hexafluoropropan-2-yl 5-(3-(2-acetyl-2,7-diazaspiro[3.5]nonan-7-yl)-5-chlorobenzyl)-2,5- .diazaspiro[3.4]octane-2-carboxylate] | 
## (## is between 25 and 75%) | ## (## is between 25 and 75%) | CCN1CCC2(CC1)CCN(c1cc(Cl)cc(CN3CCCC34CN(C(=O)OC(C(F)(F)F)C(F)(F)F)C4)c1)C2 [Example 239, 1,1,1,3,3,3-Hexafluoropropan-2-yl 5-(3-chloro-5-(8-ethyl-2,8-diazaspiro[4.5]decan-2-yl)benzyl)-2,5-diazaspiro[3,4]octane-2-carboxylate] | 
### (### is ≥75%) | ### (### is ≥75%) | CS(=O)(=O)N1CC2(CCN(c3cc(Cl)cc(CN4CCCC45CN(C(=O)OC(C(F)(F)F)C(F)(F)F)C5)c3)CC2)C1 [Example 240, 1,1,1,3,3,3-Hexafluoropropan-2-yl 5-(3-chloro-5-(2-(methylsulfonyl)-2,7-diazaspiro[3.5]nonan-7-yl)benzyl)-2,5-diazaspiro[3.4]octane-2-carboxylate] | 
# (# is ≤25%) | # (# is ≤25%) | CCN1CC2(CCN(c3cc(Cl)cc(CN4CCCC45CN(C(=O)OC(C(F)(F)F)C(F)(F)F)C5)c3)CC2)C1 [Example 241, 1,1,1,3,3,3-Hexafluoropropan-2-yl 5-(3-chloro-5-(2-ethyl-2,7-diazaspiro[3,5]nonan-7-yl)benzyl)-2,5-diazaspiro[3,4]octane-2-carboxylate] | 
### (### is ≥75%) | ## (## is between 25 and 75%) | CS(=O)(=O)N1CCC2(CCN(c3cc(C(F)(F)F)ccc3CN3CCC4(CCN(C(=O)OC(C(F)(F)F)C(F)(F)F)C4)C3)CC2)C1 (centres unmarked) [Example 242, 1,1,1,3,3,3-Hexafluoropropan-2-yl 7-(2-(2-(methylsulfonyl)-2,8-diazaspiro[4.5]decan-8-yl)-4-(trifluoromethyl)benzyl)-2,7-diazaspiro[4.4]nonane-2-carboxylate] | 
